Patent US8481028B2, “Compositions for preparing a coffee beverage comprising hydrolysed chlorogenic acid” (Nestec S.A., priority 2008, dated 2013)

How the values were obtained:
[1] = tested on: Lactobacillus johnsonii (CNCM I-1225) fresh cells; assay: Treatment of NESCAFE PROTECT with L. johnsonii fresh cells, HPLC of chlorogenic and phenolic acids
Procedure: (§1) Cells of L. johnsonii (CNCM I-1225) were grown (7.0 E08 cfu/ml) and centrifuged (5000 g, 10 min), the pellets were resuspended in phosphate buffer (50 mM, pH 7.0) at a concentration of 0.61 g/ml. […] Samples were withdrawn at different reaction times, centrifuged (3000 g, 5 min) and filtered through 0.45 μm pore size syringe filters (Millipore SLHA 025 BS) and analysed by HPLC.
A reaction control was run in parallel under the same reaction conditions but without bacteria.
(§2) Coffee samples were diluted to 1% w/w and analyzed by RP-HPLC on a CC 250/4 Nucleosil 100-5-C18 column (Macherey-Nagel). The eluent system was Millipore water, 0.1% TFA and CH3CN at a flow rate of 1 mL/min. The method allowed the simultaneous determination of caffeoyl quinic acids (CQA), feruloyl quinic acids (FQA), di-caffeoyl quinic acids (diCQA), feruloyl quinic acid-lactones, caffeic acid (CA) and ferulic acid (FA) (absorbance at 325 nm) using external standard calibration curves. Results were expressed relative to the reference at time 0 (t0) or to the reference at the same time without bacteria.

[2] = tested on: Lactobacillus johnsonii (CNCM I-1225) extract (lysed cells); assay: Treatment of NESCAFE PROTECT with L. johnsonii extract (lysed cells), HPLC; type: biochemical
Procedure: as §1, with “g/ml. The cells were then lysed using the glass-beads method. 600 μl of cells preparation were put in screw-cap tubes and 600 μl of glass-beads were added at 0° C. The tubes were then put into a Mini-Beadbeater for 1 min of intense shaking, cooled in ice, and put another 1 min in the Mini-Beadbeater.” for “g/ml.”, “min),” for “min) and”
as §2

[3] = tested on: spray-dried preparation of Lactobacillus johnsonii (CNCM I-1225); assay: Treatment of NESCAFE PROTECT with spray-dried preparation of L. johnsonii, HPLC
Procedure: To this solution, 10 mg of a spray-dried preparation of Lactobacillus johnsonii (CNCM I-1225) (3.3 E9 cfu/g) were added. The mixture was then incubated at 37° C. and samples were withdrawn at different reaction times. After centrifugation (3000 g, 5 min) and filtration (0.45 μm pore size syringe filters, Millipore SLHA 025 BS) the samples were analysed by HPLC.
as §2

[4] = tested on: spray-dried preparation of Lactobacillus johnsonii (CNCM I-1225); assay: Treatment of green coffee extract with spray-dried preparation of L. johnsonii, HPLC
Procedure: 30 mg of a dried green coffee extract was dissolved in 1 ml phosphate buffer (50 mM, pH 7.0) or in 1 ml water. To this solution, 10 mg of a spray-dried preparation of Lactobacillus johnsonii (3.3 E9 cfu/g) was added. The mixture was then incubated at 37° C. and samples were withdrawn at different reaction times. After centrifugation (3000 g, 5 min) and filtration (0.45 μm pore size syringe filters, Millipore SLHA 025 BS) the samples were analysed by HPLC.
as §2

[5] = tested on: concentrated preparation of Lactobacillus johnsonii (CNCM I-1225); assay: Treatment of NESCAFE with concentrated preparation of L. johnsonii, HPLC
Procedure: 400 mg of NESCAFE SPECIAL FILTRE® (a dried extract of roasted coffee beans) were dissolved in 1 ml of boiling water and the solution was cooled to 37° C. at room temperature. To 250 μl of this coffee solution, different amounts of concentrated preparation of Lactobacillus johnsonii (50 μl, 100 μl, 350 μl, 750 μl) were added and the volume was adjusted to 1 ml with water. The mixtures were than incubated at 37° C. for 2 h and 4 h. After centrifugation (3000 g, 5 min) and filtration the samples were analysed by HPLC.
as §2

[6] = tested on: Lactobacillus johnsonii (CNCM I-1225); assay: Treatment of coffee extracts with bacteria cells (L. johnsonii), HPLC
Procedure: as §2
(§3) Tested strains were harvested (centrifugation at 5000 g for 10 min) after having well reached stationary phase, corresponding to 16 hours of incubation in culture medium at 37° C. in anaerobic atmosphere without agitation. For a first activation of the strains, frozen stock cultures were inoculated in fresh media and grown overnight. This pre-culture was used to inoculate the culture.
(§4) After culture of bacteria and centrifugation, the pellets were resuspended in phosphate buffer (pH 7.0) at a concentration of 0.61 g/ml. To 200 μl of this cells preparation, 800 μl of a coffee solution (3%) was added and the mixture was incubated at 37° C. for 4 h, 16 h and 24 h.

[7] = tested on: Bifidobacterium lactis BB12 (CNCM I-3446); assay: Treatment of coffee extracts with bacteria cells (B. lactis), HPLC
Procedure: as §2, §3, §4

Chlorogenate esterase = assay: Incubation of coffee extracts with chlorogenate esterase, HPLC; type: biochemical, Aspergillus japonicus
Procedure: as §2
Chlorogenate esterase (24 U/g), derived from Aspergillus japonicus (Kikkoman, Japan). Tannase from Aspergillus oryzae (Kikkoman, Japan) Preparation of Bacteria Cells
A solution of chlorogenate esterase (25 mg) in 200 μl phosphate buffer (pH 7.0) was added to 800 μl of a coffee solution (3%). The mixture was then incubated at 37° C. for 4 h, 16 h and 24 h. After reaction time, the enzymatic activity was stopped by heat treatment (3 min, 90° C.) and the mixture was filtered before analysis.

[8] = NESCAFE PROTECT + Lactobacillus johnsonii, 4 h
[9] = NESCAFE PROTECT + Lactobacillus johnsonii, 16 h
[10] = NESCAFE PROTECT + Lactobacillus johnsonii, 24 h
[11] = green coffee extract + Lactobacillus johnsonii, 4 h
[12] = green coffee extract + Lactobacillus johnsonii, 16 h
[13] = green coffee extract + Lactobacillus johnsonii, 24 h
[14] = NESCAFE PROTECT + Bifidobacterium lactis, 4 h
[15] = NESCAFE PROTECT + Bifidobacterium lactis, 16 h
[16] = NESCAFE PROTECT + Bifidobacterium lactis, 24 h
[17] = green coffee extract + Bifidobacterium lactis, 4 h
[18] = green coffee extract + Bifidobacterium lactis, 16 h
[19] = green coffee extract + Bifidobacterium lactis, 24 h
[20] = NESCAFE PROTECT + Chlorogenate esterase, 4 h
[21] = NESCAFE PROTECT + Chlorogenate esterase, 16 h
[22] = NESCAFE PROTECT + Chlorogenate esterase, 24 h
[23] = green coffee extract + Chlorogenate esterase, 4 h
[24] = green coffee extract + Chlorogenate esterase, 16 h
[25] = green coffee extract + Chlorogenate esterase, 24 h

Compound: COc1cc(/C=C/C(=O)O)ccc1O [FA, ferulic acid]
- Concentration in % relative to untreated reference at t = 0 ([1]; 6 h, cell preparation 100 uL): 4594%
- Concentration in % relative to untreated reference at t = 0 ([1]; 6 h, cell preparation 350 uL): 7234%
- Concentration in % relative to untreated reference at t = 0 ([1]; 6 h, cell preparation 750 uL): 7776%
- Concentration in % relative to untreated reference at t = 0 ([1]; 24 h, cell preparation 100 uL): 6691%
- Concentration in % relative to untreated reference at t = 0 ([1]; 24 h, cell preparation 350 uL): 8861%
- Concentration in % relative to untreated reference at t = 0 ([1]; 24 h, cell preparation 750 uL): 8845%
- Concentration in % relative to untreated reference at t = 0 ([2]; 2 h, cell preparation 100.0 uL): 5581%
- Concentration in % relative to untreated reference at t = 0 ([2]; 2 h, cell preparation 350.0 uL): 7771%
- Concentration in % relative to untreated reference at t = 0 ([2]; 6 h, cell preparation 100.0 uL): 6960%
- Concentration in % relative to untreated reference at t = 0 ([2]; 6 h, cell preparation 350.0 uL): 9720%
- % relative to untreated control at t = 0 ([3]; 2 h): 1109%
- % relative to untreated control at t = 0 ([3]; 6 h): 2183%
- % relative to untreated control at t = 0 ([3]; 24 h): 3686%
- % relative to untreated control at t = 0 ([4]; 4 h): 961%
- % relative to untreated control at t = 0 ([4]; 6 h): 1429%
- % relative to untreated control at t = 0 ([4]; 16 h): 1963%
- % relative to untreated control at t = 0 ([4]; 24 h): 2432%
- % relative to untreated control at t = 0 ([5]; cell amount 50 μL/1 mL, 2 h): 1509%
- % relative to untreated control at t = 0 ([5]; cell amount 50 μL/1 mL, 4 h): 786%
- % relative to untreated control at t = 0 ([5]; cell amount 100 μL/1 mL, 2 h): 2468%
- % relative to untreated control at t = 0 ([5]; cell amount 100 μL/1 mL, 4 h): 1266%
- % relative to untreated control at t = 0 ([5]; cell amount 350 μL/1 mL, 2 h): 5327%
- % relative to untreated control at t = 0 ([5]; cell amount 350 μL/1 mL, 4 h): 2408%
- % relative to untreated control at t = 0 ([5]; cell amount 750 μL/1 mL, 2 h): 7586%
- % relative to untreated control at t = 0 ([5]; cell amount 750 μL/1 mL, 4 h): 3281%
- % relative to untreated control at t = 0 [6, 8]: 4051%
- % relative to untreated control at t = 0 [6, 9]: 5226%
- % relative to untreated control at t = 0 [6, 10]: 5504%
- % relative to untreated control at t = 0 [6, 11]: 4607%
- % relative to untreated control at t = 0 [6, 12]: 7192%
- % relative to untreated control at t = 0 [6, 13]: 7597%
- % relative to untreated control at t = 0 [7, 14]: 3065%
- % relative to untreated control at t = 0 [7, 15]: 4518%
- % relative to untreated control at t = 0 [7, 16]: 5144%
- % relative to untreated control at t = 0 [7, 17]: 5020%
- % relative to untreated control at t = 0 [7, 18]: 6970%
- % relative to untreated control at t = 0 [7, 19]: 7105%
- % relative to untreated control at t = 0 (Chlorogenate esterase; [20]): 2794%
- % relative to untreated control at t = 0 (Chlorogenate esterase; [21]): 5140%
- % relative to untreated control at t = 0 (Chlorogenate esterase; [22]): 5518%
- % relative to untreated control at t = 0 (Chlorogenate esterase; [23]): 2620%
- % relative to untreated control at t = 0 (Chlorogenate esterase; [24]): 5685%
- % relative to untreated control at t = 0 (Chlorogenate esterase; [25]): 6293%

Compound: caffeoyl quinic acids [CQA]
- Concentration in % relative to untreated reference at t = 0 ([1]; 6 h, cell preparation 100 uL): 39%
- Concentration in % relative to untreated reference at t = 0 ([1]; 6 h, cell preparation 350 uL): 14%
- Concentration in % relative to untreated reference at t = 0 ([1]; 6 h, cell preparation 750 uL): 3%
- Concentration in % relative to untreated reference at t = 0 ([1]; 24 h, cell preparation 100 uL): 15%
- Concentration in % relative to untreated reference at t = 0 ([1]; 24 h, cell preparation 350 uL): 3%
- Concentration in % relative to untreated reference at t = 0 ([1]; 24 h, cell preparation 750 uL): 0%
- Concentration in % relative to untreated reference at t = 0 ([2]; 2 h, cell preparation 100.0 uL): 32%
- Concentration in % relative to untreated reference at t = 0 ([2]; 2 h, cell preparation 350.0 uL): 10%
- Concentration in % relative to untreated reference at t = 0 ([2]; 6 h, cell preparation 100.0 uL): 14%
- Concentration in % relative to untreated reference at t = 0 ([2]; 6 h, cell preparation 350.0 uL): 6%
- % relative to untreated control at t = 0 ([3]; 2 h): 73%
- % relative to untreated control at t = 0 ([3]; 6 h): 67%
- % relative to untreated control at t = 0 ([3]; 24 h): 32%
- % relative to untreated control at t = 0 ([4]; 4 h): 77%
- % relative to untreated control at t = 0 ([4]; 6 h): 69%
- % relative to untreated control at t = 0 ([4]; 16 h): 58%
- % relative to untreated control at t = 0 ([4]; 24 h): 50%
- % relative to untreated control at t = 0 ([5]; cell amount 50 μL/1 mL, 2 h): 92%
- % relative to untreated control at t = 0 ([5]; cell amount 50 μL/1 mL, 4 h): 76%
- % relative to untreated control at t = 0 ([5]; cell amount 100 μL/1 mL, 2 h): 80%
- % relative to untreated control at t = 0 ([5]; cell amount 100 μL/1 mL, 4 h): 60%
- % relative to untreated control at t = 0 ([5]; cell amount 350 μL/1 mL, 2 h): 46%
- % relative to untreated control at t = 0 ([5]; cell amount 350 μL/1 mL, 4 h): 33%
- % relative to untreated control at t = 0 ([5]; cell amount 750 μL/1 mL, 2 h): 25%
- % relative to untreated control at t = 0 ([5]; cell amount 750 μL/1 mL, 4 h): 17%
- % relative to untreated control at t = 0 [6, 8]: 33%
- % relative to untreated control at t = 0 [6, 9]: 13%
- % relative to untreated control at t = 0 [6, 10]: 13%
- % relative to untreated control at t = 0 [6, 11]: 42%
- % relative to untreated control at t = 0 [6, 12]: 15%
- % relative to untreated control at t = 0 [6, 13]: 12%
- % relative to untreated control at t = 0 [7, 14]: 97%
- % relative to untreated control at t = 0 [7, 15]: 81%
- % relative to untreated control at t = 0 [7, 16]: 80%
- % relative to untreated control at t = 0 [7, 17]: 96%
- % relative to untreated control at t = 0 [7, 18]: 79%
- % relative to untreated control at t = 0 [7, 19]: 74%
- % relative to untreated control at t = 0 (Chlorogenate esterase; [20]): 5%
- % relative to untreated control at t = 0 (Chlorogenate esterase; [21]): 3%
- % relative to untreated control at t = 0 (Chlorogenate esterase; [22]): 3%
- % relative to untreated control at t = 0 (Chlorogenate esterase; [23]): 3%
- % relative to untreated control at t = 0 (Chlorogenate esterase; [24]): 2%
- % relative to untreated control at t = 0 (Chlorogenate esterase; [25]): 2%
